Test results from patent US10900063B2, “Measurement of Lp-PLA2 activity” (ASAHI KASEI PHARMA CORPORATION, priority 2016, dated 2021).

T1: Lp-PLA2 (Homo sapiens, UniProt Q13093)
T1 construct: Individual serum No. 16, individual serum No. 78; from tissue; host or cells: serum and plasma (individual sera, pooled sera, heparin and citrated pooled plasma)
T1 sequence (Q13093 22-441): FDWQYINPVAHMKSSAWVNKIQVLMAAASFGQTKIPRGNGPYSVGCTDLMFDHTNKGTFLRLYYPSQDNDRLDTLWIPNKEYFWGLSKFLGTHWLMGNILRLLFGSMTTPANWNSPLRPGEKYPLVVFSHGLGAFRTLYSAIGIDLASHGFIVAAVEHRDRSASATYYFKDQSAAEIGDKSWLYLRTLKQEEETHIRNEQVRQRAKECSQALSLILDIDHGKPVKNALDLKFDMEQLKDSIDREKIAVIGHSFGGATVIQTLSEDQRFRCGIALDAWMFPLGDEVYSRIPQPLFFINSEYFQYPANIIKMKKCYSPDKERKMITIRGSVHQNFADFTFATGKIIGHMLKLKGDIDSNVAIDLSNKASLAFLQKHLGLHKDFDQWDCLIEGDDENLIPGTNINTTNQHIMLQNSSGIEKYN


How the values were obtained:
[1] = neutral pH; cited from earlier work
[2] = target: T1, Lp-PLA2; experiment: Effects of coexisting substances, PLAC Test; type: biochemical; details: for Lp-PLA2 activity value / ΔmAbs/min: coexisting substance added 1:9 to pooled serum J042; for measurement value as percentage of sample with added water (100%): pooled serum J042 plus coexisting substance vs J042 + water
Source text: (§1) The reagent compositions were the same as in Example 17.
(§2) The absorbance change values per minute (ΔmAbs/min) and activity values (nmol/min/mL and U/L) with each kind of reagent are shown in Tables 43 to 45. Given 100% as the measurement value of the sample with the added water, the measurement values for the other samples are shown as percentages.

[3] = target: T1, Lp-PLA2; experiment: Effects of coexisting substances, Lp-PLA2 FS; type: biochemical; details: for Lp-PLA2 activity value / ΔmAbs/min: coexisting substance added 1:9 to pooled serum J042; for measurement value as percentage of sample with added water (100%): pooled serum J042 plus coexisting substance vs J042 + water
Source text: as §1, §2

[4] = target: T1, Lp-PLA2; experiment: Effects of coexisting substances, reagents of invention; type: biochemical; details: for measurement value as percentage of sample with added water: J042 + water = 100%, concentrations as printed in the sample names; for Lp-PLA2 activity value / absorbance change per minute: pooled serum J042 mixed 9:1 with: Bil-C 20 mg/dL, Bil-F 20 mg/dL, hemolytic Hb 500 mg/dL, chyle 1400 FTU, Intralipos 1%, ascorbic acid 50 mg/dL
Source text: as §1, §2

[5] = Specificity of recombinant lyso-PAF-PLD: PLD activity against lyso-PAF; type: biochemical; details: 0 to 0.5 mM lyso-PAF (C16); […] enzyme in R2
Protocol: (§3) To investigate the specificity of the recombinant lyso-PAF-PLD purified in Reference Example 3, activity against PAF(C16) and lyso-PAF(C16) was studied. The reagent compositions are as follows.
(§4) 5 μL samples containing PAF(C16) or lyso-PAF(C16) at concentrations of 0, 0.1, 0.2, 0.3, 0.4 or 0.5 mM were each incubated for 5 minutes at 37° C. with 15 μL of the R1 reagent (measuring points 1 to 15), after which 50 μL of the R2 reagent was added and reacted for 5 minutes (measuring points 16 to 31).

[6] = Thermal stability test of lyso-PAF-PLD (residual activity); type: physicochemical; details: incubated 60 minutes in 20 mM Tris-HCl (pH 7.5)
Protocol: The purified lyso-PAF-PLD was incubated for 60 minutes at different temperatures in a 20 mM Tris-HCl (pH 7.5) solution, and residual activity was investigated with the following reaction solution. C18(Plasm) LPC (Product No. 852465P, Avanti Polar Lipids, Inc.) was used as the substrate.
50 μL of the reaction solution was pre-incubated for 5 minutes at 37° C., 5 μL of the enzyme solution was added, and an enzyme reaction was performed for 1 minute at […]. 200 μL of the color developing solution was then added and reacted for 10 minutes at 37° C., after which absorbance was measured at 550 nm. The activity value was calculated according to the following formula.

[7] = Specificity of recombinant lyso-PAF-PLD: PLD activity against PAF; type: biochemical; details: 0 to 0.5 mM PAF (C16); […] enzyme in R2
Protocol: as §3, §4

[8] = PLD activity (kcat/Km) of lyso-PAF-PLD and site-specific mutants against lyso-PAF; type: biochemical; details: substrate lyso-PAF 0 to 5 mM, pH 7.5, 37° C.
Protocol: As a result, the pre-mutation PLD activity was 1385 (s^−1 mM^−1), but the mutant having G substituted for the M in the 45th position of SEQ ID NO: 9 (called M45G) and the similarly-named mutants M45A, M45L and M45D had PLD activities of 3059, 11411, 3284 and 4557 (s^−1mM^−1), respectively.
As a result, the PLD activity was 1385 (s^−1mM^−1) before the mutation, but the mutant having G substituted for F in the 257th position of […] (called F257G) and the similarly-named mutants F257E, F257R, F257K and F257W had PLD activities 1200, 1000, 1080, 1020 and 1320, respectively.
The PLD activity of the lyso-PAF-PLD mutants obtained by site-specific mutations was measured as follows. 1.211 g of Tris, 14.7 mg of calcium chloride dihydrate (Wako Pure Chemical Industries, Ltd.), 20 mL of lyso-PAF solution and 2 mL of 1% TODB solution were dissolved in 60 mL of purified water, the pH was adjusted to 7.5 (25° C.) with 1 N HCl, 4 mL of 100 U/mL choline oxidase, 4 mL of 100 U/mL peroxidase solution and 2 mL of 1% 4-AA solution were added and dissolved, and the total was brought to 100 mL with purified water to obtain a PLD activity measurement reagent for lyso-PAF (reaction reagent mixture). The lyso-PAF solution was adjusted so that the lyso-PAF concentration in the reaction reagent mixture was 0 to 5 mM. 3 mL of the reaction reagent mixture was pre-heated for 5 minutes at 37° C., and mixed with 50 μL of a solution of the lyso-PAF-PLD mutant with the introduced site-specific mutation diluted appropriately with 10 mM Tris-HCl (pH 7.5) to initiate a reaction, and the change in absorbance at 546 nm was measured for 1 minute between 8 and 9 minutes after initiation of the reaction. The activity value (μmole/min) was calculated given 36 (cm^2/μmole) as the millimolar extinction coefficient of the quinoneimine dye at 546 nm. The protein content (mg/mL) was calculated by the Bradford method using bovine serum albumin as the standard. Km and kcat were calculated by the Michaelis-Menten formula in accordance with the methods described in the aforementioned Theory and Practice on Enzymes and other Proteins [Tanpakushitsu/Kouso no kiso jikkenhou] and in Voet's Basic Biochemistry (Fourth Ed.) and the like. For purposes of calculation, the molecular weight of the enzyme was given as 33583.

| Molecule | Lp-PLA2 activity value [2] [nmol/min/mL] | ΔmAbs/min [2] | measurement value as percentage of sample with added water (100%) [2] [%] | Lp-PLA2 activity value [3] [U/L] | ΔmAbs/min [3] | measurement value as percentage of sample with added water (100%) [3] [%] | measurement value as percentage of sample with added water [4] [%] | Lp-PLA2 activity value [4] [nmol/min/mL] | absorbance change per minute [4] | Km [8] [µM] | kcat [8] [s⁻¹] | further results |
| --- | --- | --- | --- | --- | --- | --- | --- | --- | --- | --- | --- | --- |
| CCCCCCCCCCCCCC(=O)OCC(COP(=O)([O-])OCC[N+](C)(C)C)OC(=O)CCC(=O)Oc1ccc([N+](=O)[O-])cc1 (centres unmarked) [1-myristoyl-2-(4-nitrophenylsuccinyl)phosphatidylcholine] | – | – | – | – | – | – | – | – | – | – | – | water solubility [1]: poor water solubility at neutral pH values |
| C=CC1=C(C)/C(=C/c2[nH]c(Cc3[nH]c(/C=C4\NC(=O)C(C)=C4C=C)c(C)c3CCC(=O)O)c(CCC(=O)O)c2C)NC1=O [Bil-F] | 145.5 | 188.4 ΔmAbs/min | 105 | 351.0 | 29.4 ΔmAbs/min | 102 | 101 | 31.3 | 22.1 ΔmAbs/min | – | – | – |
| O=C1O[C@H]([C@@H](O)CO)C(O)=C1O [ascorbic acid, L(+)-Ascorbic acid] | 138.1 | 181.0 ΔmAbs/min | 99 | 343.5 | 28.8 ΔmAbs/min | 100 | 96 | 29.6 | 20.9 ΔmAbs/min | – | – | – |
| lyso-PAF-PLD: recombinant enzyme from Thermocrispum sp. NITE BP-01628, SEQ ID NO: 9, PLD activity against lyso-PAF but not PAF (protein) MTTRTTDNPWLDARVLNMAHAGGENEAPANTLYAFKRAVKLGANMLELDVQSTKDDQLVVIHNATVDQTTDGTGKVRDLTFEQVHELDAAYNFIPGRHAVPGEPPESYPLRGVRTGEKKPPPGYQPSDFAIPKLADVLEAFPRTPINIEIKGTSDADIPSFLHNAKLLARLLKKTGRTDFIVTSFNDLAVAKFHLLAPDIPIAPGMAGLAAYFLLGVKPMHGTVALQIPVRYQGLEIATPEFIRRAHADGYAVHVWFSGTAPDDEATYNRIIDSCADGLMPAYPALLERILDERGIERPGRPGVDPCG | – | – | – | – | – | – | – | – | – | – | – | PLD activity against lyso-PAF [5]: exhibits PLD activity only against lyso-PAF; thermal stability (residual activity) [6]: not inactivated by storage at 20 to 60 °C; PLD activity against PAF [7]: not against PAF |
| M45D: lyso-PAF-PLD mutant, D substituted for M in the 45th position of SEQ ID NO: 9 (protein) MTTRTTDNPWLDARVLNMAHAGGENEAPANTLYAFKRAVKLGANDLELDVQSTKDDQLVVIHNATVDQTTDGTGKVRDLTFEQVHELDAAYNFIPGRHAVPGEPPESYPLRGVRTGEKKPPPGYQPSDFAIPKLADVLEAFPRTPINIEIKGTSDADIPSFLHNAKLLARLLKKTGRTDFIVTSFNDLAVAKFHLLAPDIPIAPGMAGLAAYFLLGVKPMHGTVALQIPVRYQGLEIATPEFIRRAHADGYAVHVWFSGTAPDDEATYNRIIDSCADGLMPAYPALLERILDERGIERPGRPGVDPCG | – | – | – | – | – | – | – | – | – | 34 | 157 | – |
| M45L: lyso-PAF-PLD mutant, L substituted for M in the 45th position of SEQ ID NO: 9 (protein) MTTRTTDNPWLDARVLNMAHAGGENEAPANTLYAFKRAVKLGANLLELDVQSTKDDQLVVIHNATVDQTTDGTGKVRDLTFEQVHELDAAYNFIPGRHAVPGEPPESYPLRGVRTGEKKPPPGYQPSDFAIPKLADVLEAFPRTPINIEIKGTSDADIPSFLHNAKLLARLLKKTGRTDFIVTSFNDLAVAKFHLLAPDIPIAPGMAGLAAYFLLGVKPMHGTVALQIPVRYQGLEIATPEFIRRAHADGYAVHVWFSGTAPDDEATYNRIIDSCADGLMPAYPALLERILDERGIERPGRPGVDPCG | – | – | – | – | – | – | – | – | – | 23 | 147 | – |
